Laboratory results taken from patent US5359076A, “Cyclic aminophenylacetic acid derivatives, process for preparing the same and immune response modulator having the same as an effective ingredient” (Kyorin Pharmaceutical Co., Ltd., priority 1991, dated 1994).
Structures can show the parent of a compound that is named as a salt.

Columns and labels:
vascular permeability = assay: Inhibitory effect on vascular permeability (acetic acid, Evans Blue, mice); format: in vivo, male ddY-strain mice; conditions: 100 mg/kg, p.o.
Procedure: Male ddY-strain mice were orally administered with the compound of examples in 5% arabic gum suspension. After 45 minutes, 1% Evans Blue dissolved in saline (0.1 ml/10 g body weight) was injected into tail vein, and immediately, 1% of acetic acid diluted in saline (0.1 ml/10 g body weight) was injected into peritoneal cavity. Thirty minutes later, each mouse was sacrificed and peritoneal cavity was washed with saline (2 ml/10 g body weight). Peritoneal exuded fluid was collected and centrifuged at 3,000 rpm for 10 minutes. The optical density of supernatant was read at 630 nm. The volume of Evans Blue was determined from the calibration curve and the inhibition ratio was calculated.

adjuvant arthritis = assay: Therapeutic effect on the adjuvant arthritis in rats (swelling of non-injected hind paw); format: in vivo, female SD-strain rats; conditions: oral
Procedure: Heat-killed Mycobacterium butyricum (0.6 mg/rat) suspended in liquid paraffin was injected intradermally into right hind paw of female SD-strain rats. Test compounds suspended in 0.3% CMC solution were administered orally once a day for 7 days from 14 days to 20 days after the injection of adjuvant. The swelling of non-injected hind paw was measured by the water displacement method.

[1] = test system: IgM antibody-producing cells; assay: Effect on IgM antibody-producing cells in vitro (Jerne method); format: cell-based, BDF1-strain mice; conditions: n 6; for IgM-PFC/culture (mean ± S.E.): reference 82 ± 15, *p < 0.01 (Dunnett's test)
Procedure: The spleen cells of BDF1 -strain mice were isolated by finely mincing the spleen, centrifuged, and suspended in medium (RPMI-1640+10% FCS). Each 50 μl of spleen cell suspension (2×10^7 cells/ml) and sheep erythrocyte suspension (1×10^7 cells/ml) was spread on a 96-well plate. Test compounds were dissolved in DMSO and diluted in medium. Then, 100 μl of medium containing test compounds were added to the 96-well plate. After the plate was incubated at 37° C. for 5 days in 5% CO2 incubator, the number of IgM antibody-producing cells was counted by Jerne method.

[2] = test system: IgM antibody-producing cells; assay: Effect on IgM antibody-producing cells in vivo (Jerne method); set-up: species or system BALB/c-strain mice; conditions: 12.5 mg/kg/day, oral 4 days, n 7
Procedure: To a BALB/c-strain mice were intraperitoneally injected with 5×10^8 /0.1 ml of sheep erythrocytes. The test compound was administered orally once a day for 4 days since the erythrocyte injection. On the next day of final administration, the spleen cells were isolated by finely mincing the spleen, centrifuged and suspended in medium (RPMI-1640+10% FCS). The number of IgM antibody-producing cells was counted by Jerne method.

[3] = 25 mg/kg/day, 18 Days after adjuvant
[4] = 25 mg/kg/day, 21 Days after adjuvant
[5] = 25 mg/kg/day, 27 Days after adjuvant
[6] = 50 mg/kg/day, 18 Days after adjuvant
[7] = 50 mg/kg/day, 21 Days after adjuvant
[8] = 50 mg/kg/day, 27 Days after adjuvant

Compound: CCOC(=O)Cc1cc(Cl)c2c(c1)CCC(c1ccccc1F)N2 (stereo not drawn) [Example 4, Ethyl 8-chloro-2-(2-fluorophenyl)-1,2,3,4-tetrahydroquinoline-6-acetate]
- Inhibition ratio (vascular permeability) (vascular permeability): 33.1%

Compound: O=C(O)Cc1cc(Cl)c2c(c1)CCC(c1ccccc1F)N2 (stereo not drawn) [Example 7, 8-Chloro-2-(2-fluorophenyl)-1,2,3,4-tetrahydroquinoline-6-acetic acid]
- Inhibition ratio of swelling (adjuvant arthritis; [3]): 6%
- Inhibition ratio of swelling (adjuvant arthritis; [4]): 19%
- Inhibition ratio of swelling (adjuvant arthritis; [5]): 33%
- Inhibition ratio of swelling (adjuvant arthritis; [6]): 36%
- Inhibition ratio of swelling (adjuvant arthritis; [7]): 52%
- Inhibition ratio of swelling (adjuvant arthritis; [8]): 50%
- Inhibition ratio of swelling (adjuvant arthritis; 100 mg/kg/day, 18 Days after adjuvant): 59%
- Inhibition ratio of swelling (adjuvant arthritis; 100 mg/kg/day, 21 Days after adjuvant): 64%
- Inhibition ratio of swelling (adjuvant arthritis; 100 mg/kg/day, 27 Days after adjuvant): 64%
- Inhibition ratio (vascular permeability) (vascular permeability): 51.1%

Compound: O=C(O)Cc1cc(Cl)c2c(c1)CCC(c1ccccc1)N2 (stereo not drawn) [Example 8, 8-Chloro-2-phenyl-1,2,3,4-tetrahydroquinoline-6-acetic acid]
- Inhibition ratio (vascular permeability) (vascular permeability): 50.0%

Compound: COc1ccc(C2CCc3cc(CC(=O)O)cc(Cl)c3N2)cc1 (stereo not drawn) [Example 9, 8-Chloro-2-(4-methoxyphenyl)-1,2,3,4-tetrahydroquinoline-6-acetic acid]
- Inhibition ratio (vascular permeability) (vascular permeability): 16.0%

Compound: CN1c2ccc(CC(=O)O)cc2CCC1c1ccccc1 (stereo not drawn) [Example 11, 1-Methyl-2-phenyl-1,2,3,4-tetrahydroquinoline-6-acetic acid]
- Inhibition ratio (vascular permeability) (vascular permeability): 42.7%

Compound: CN1c2c(Cl)cc(CC(=O)O)cc2CCC1c1ccccc1 (stereo not drawn) [Example 12, 8-Chloro-1-methyl-2-phenyl-1,2,3,4-tetrahydroquinoline-6-acetic acid]
- Inhibition ratio (vascular permeability) (vascular permeability): 52.7%

Compound: O=C(O)Cc1cc(Cl)c2c(c1)CCC(C(F)(F)F)N2 (stereo not drawn) [Example 15, 8-Chloro-1,2,3,4-tetrahydro-2-trifluoromethylquinoline-6-acetic acid]
- IgM-PFC/culture (mean ± S.E.) ([1]; 2 × 10^-6 M): 24 ± 3 IgM-PFC/culture
- IgM-PFC/culture (mean ± S.E.) ([1]; 5 × 10^-5 M): 31 ± 9 IgM-PFC/culture
- inhibition at 2 µM ([1]; Mus musculus, 120 h, 2 × 10^-6 M, read-out: Inhibition ratio (IgM-PFC in vitro)): 71%
- inhibition at 50 µM ([1]; Mus musculus, 120 h, 5 × 10^-5 M, read-out: Inhibition ratio (IgM-PFC in vitro)): 62%
- Inhibition ratio of swelling (adjuvant arthritis; 12.5 mg/kg/day, 18 Days after adjuvant): 21%
- Inhibition ratio of swelling (adjuvant arthritis; 12.5 mg/kg/day, 21 Days after adjuvant): 36%
- Inhibition ratio of swelling (adjuvant arthritis; 12.5 mg/kg/day, 27 Days after adjuvant): 50%
- Inhibition ratio of swelling (adjuvant arthritis; [3]): 39%
- Inhibition ratio of swelling (adjuvant arthritis; [4]): 45%
- Inhibition ratio of swelling (adjuvant arthritis; [5]): 52%
- Inhibition ratio of swelling (adjuvant arthritis; [6]): 39%
- Inhibition ratio of swelling (adjuvant arthritis; [7]): 56%
- Inhibition ratio of swelling (adjuvant arthritis; [8]): 58%
- Inhibition ratio (IgM-PFC in vivo) [2]: 35%
- IgM-PFC/spleen (× 10^2) (mean ± S.E.) ([2]; reference 995 ± 55, *p < 0.05 (Dunnett's test)): 651 ± 49 IgM-PFC/spleen (× 10^2)
- Inhibition ratio (vascular permeability) (vascular permeability): 29.1%

Compound: O=C(O)Cc1ccc2c(c1)CCC(C(F)(F)F)N2 (stereo not drawn) [Example 16, 1,2,3,4-Tetrahydro-2-trifluoromethylquinoline-6-acetic acid]
- Inhibition ratio (vascular permeability) (vascular permeability): 37.3%

Compound: O=C(O)Cc1cc(Br)c2c(c1)CCC(C(F)(F)F)N2 (stereo not drawn) [Example 23, 8-Bromo-1,2,3,4-tetrahydro-2-trifluoromethylquinoline-6-acetic acid]
- Inhibition ratio (vascular permeability) (vascular permeability): 38.6%

Compound: N#Cc1cc(CC(=O)O)cc2c1NC(C(F)(F)F)CC2 (stereo not drawn) [Example 24, 8-Cyano-1,2,3,4-tetrahydro-2-trifluoromethylquinoline-6-acetic acid]
- Inhibition ratio (vascular permeability) (vascular permeability): 25.9%

Compound: O=C(O)Cc1cc2c(c(-c3ccccc3)c1)NC(C(F)(F)F)CC2 (stereo not drawn) [Example 27, 8-Phenyl-1,2,3,4-tetrahydro-2-trifluoromethylquinoline-6-acetic acid]
- Inhibition ratio (vascular permeability) (vascular permeability): 27.0%

Compound: CC(=O)c1cc(CC(=O)O)cc2c1NC(C(F)(F)F)CC2 (stereo not drawn) [Example 28, 8-Acetyl-1,2,3,4-tetrahydro-2-trifluoromethylquinoline-6-acetic acid]
- Inhibition ratio (vascular permeability) (vascular permeability): 16.7%

Compound: CSc1cc(CC(=O)O)cc2c1NC(C(F)(F)F)CC2 (stereo not drawn) [Example 29, 8-Methylthio-1,2,3,4-tetrahydro-2-trifluoromethylquinoline-6-acetic acid]
- Inhibition ratio (vascular permeability) (vascular permeability): 18.4%

Compound: O=C(O)Cc1cc2c(c(C(=O)c3ccccc3)c1)NC(C(F)(F)F)CC2 (stereo not drawn) [Example 32, Sodium salt of 8-benzoyl-1,2,3,4-tetrahydro-2-trifluoromethylquinoline-6-acetic acid]
- Inhibition ratio (vascular permeability) (vascular permeability): 19.7%

Compound: O=C(O)Cc1cc2c(c([N+](=O)[O-])c1)NC(C(F)(F)F)CC2 (stereo not drawn) [Example 33, 8-Nitro-1,2,3,4-tetrahydro-2-trifluoromethylquinoline-6-acetic acid]
- Inhibition ratio (vascular permeability) (vascular permeability): 25.4%
